Some results are limits rather than exact numbers.

Regarding `O=C1NC(=O)c2c1cc1ccc3c(c1c2-c1ccc2c(c1)OCO2)OCC3`, the melting point (commonly the temperature, or range, at which the solid turns liquid) is over 320 °C.
On to `CCSC1(SCC)CCC2C3CCC4=CC(=O)C=CC4(C)C3C(O)CC21C` (stereo not given), for which the melting point fell in the range of 163 to 165 °C.
To `COc1ccc(Nc2nc(=O)c3cccnc3s2)cc1` belongs 250 to 251 °C.
In the case of `CN1C(=O)C(c2ccc(OC(F)F)cc2)(c2cccc(C3CC(O)C3)c2)N=C1N` (stereo not given), the melting point fell in the range of 186 to 190 °C.
To `Cc1nc(-n2ccc(-c3ccccc3)cc2=O)sc1C(=O)NCc1ccccc1` belongs 235 to 237 °C; to `BrCc1cc(-c2ccccc2)cs1`, 87 to 88.5 °C.
Turning to `CNC(=C[N+](=O)[O-])NCc1ccc2c(c1)Nc1nccnc1S2`, the melting point is over 265 °C.
In turn, `O=C(O)c1ccccc1Oc1ccc(C(F)(F)F)cc1NS(=O)(=O)c1ccccc1` had a melting point of 177 °C.
The value for `CCCCCCCCNC(=O)NCc1ccc(O)c(OC)c1` was 90 to 92 °C.
To `COc1ccc2c(c1)C(c1ccc(N)cc1)=NNC(=O)C2` belongs 167 to 170 °C; to `Cc1cc2c(cc1C)N(C)Cc1cscc1N2`, 121 to 125 °C; to `CNC(=O)n1cnc(C(N)=O)c1N`, 165 to 169 °C.
In turn, `CCOC(=O)CCCc1oc(=O)[nH]c1-c1ccc(Cl)s1` returned a melting point of 95 to 96 °C.
`O=S(=O)(c1ccc(Oc2ccccc2)cc1)c1ccc(Oc2ccccc2)cc1` gave a melting point of 142 to 143 °C.
As for `O=C1N(c2c(Cl)cccc2Cl)Cc2cnc(NC3CCCCC3)nc2N1c1ccccc1`, the melting point was in the range of 258 to 259 °C.
With `CCC(=O)CC(=O)C1CCC2C3CCC4CC(O)CCC4(C)C3C(=O)CC12C` (stereo not given), the melting point is 128 to 130 °C.
The value for `Nc1ccc(CS(=O)(=O)Nc2ccccc2)cc1` was 180 to 182 °C.
To `CCC(=O)Oc1ccc(-c2oc3cc(OC)cc(OC(=O)CC)c3c(=O)c2OC)cc1OC` belongs 106 to 107 °C; to `O=C1Nc2ccccc2OCC1(Cl)Cl`, 170 to 174 °C; to `Cc1cc2n(C)c(=O)c3cnccc3n2n1`, over 300 °C.
The value for `CCc1nc(Cl)cc(NC)n1` was 80 to 81 °C; that for `N#Cc1c(NC(=O)C2CCCCC2)sc(-c2ccccc2)c1C#N` was 208 to 212 °C; that for `O=C1NC(=O)C(Nc2ccc(CCNC[C@H](O)c3ccccc3)cc2)S1` (stereo not given in full) was 55 °C.
`CNC(=O)N(C)C(CCSC)P(=O)(O)O` (stereo not given) yielded a melting point of 164 to 167 °C.
For `CSc1sc(C(=O)O)c2c1-c1sc(-c3ccccc3)cc1CC2`, the melting point is 215 to 217 °C.
The value for `CCCCc1nc(SC)c(C(C)(O)C(=O)O)n1Cc1ccc(-c2ccccc2S(=O)(=O)NC(=O)OCc2ccccc2)cc1` (stereo not given) was 140 to 150 °C; that for `CCOC(=O)c1cnc([N+](=O)[O-])n1C` was 65 to 66 °C; that for `CC(=O)c1ccccc1Nc1c(Cl)ccc(C)c1Cl` was 130 to 132 °C.
To `CS(=O)(=O)N(CCc1ccccc1)Cc1cccnc1` belongs 94 to 95 °C; to `CCc1cnc2ccnn2c1NCc1ccc(-c2ccccc2C#N)cc1`, 151 to 153 °C; to `CCCS(=O)(=O)Nc1ccc2c(c1)S(=O)(=O)C=C(c1c(O)c3cc(F)ccc3n(CCC3CC3)c1=O)N2`, 145 to 150 °C.
The value for `CCOC(=O)C(C(=O)OCC)C(=O)C1CCC2C3CCC4CC(O)CCC4(C)C3C(=O)CC12C` (stereo not given) was 116 to 117 °C; that for `Clc1ccc(-c2noc3ccc(CBr)cc23)cc1` was 142 °C.
Turning to `O=C(O)COc1ccc2c(-c3cc([N+](=O)[O-])ccc3F)noc2c1Cl`, the melting point lay in the range of 238 to 240 °C.
To `Cc1ccc(N2CCCN(C(=O)OC(C)(C)C)CC2)cc1[N+](=O)[O-]` belongs 103 to 106 °C.
In turn, `O=C=Nc1c(F)cc(Cl)c2nc(Cl)sc12` displayed a melting point of 95 to 98 °C.
Take `OCc1cc(OCc2ccc3ccccc3n2)no1`: the melting point lay in the range of 111 to 112 °C.
To `Cc1oc(-c2ccccc2)nc1CCOc1ccc(CCC(=O)O)cc1` belongs 142 to 144 °C.
To `O=c1ncc(Cl)cn1CSc1ccc(Cl)cc1` belongs 191 °C; to `C#CCNc1cc(C(=O)O)cc(S(N)(=O)=O)c1Oc1ccccc1`, 222 to 223 °C; to `O=C1c2ccccc2C(=O)N1CCCCSc1nccc(NC(=S)NCC(F)(F)F)n1`, 201 to 202 °C.
To `CS(=O)c1ccc2nc3sc(C(=O)O)cn3c(=O)c2c1` (stereo not given) belongs 243 to 244 °C; to `CC1=CC(c2ccccc2[N+](=O)[O-])C=C(CN2C(=O)c3ccccc3C2=O)N1` (stereo not given), 137 to 138 °C; to `COC(=O)c1cc2c(cc1N)OCCO2`, 73 to 77 °C.
In turn, `Cn1c(-c2cccc3[nH]c(-c4ccncc4)cc23)n[nH]c1=O` had a melting point of over 300 °C.
The value for `CCCCOc1cc2cc(CO)c(CO)c(-c3ccnc(NN)c3)c2cc1OC` was 93 to 97 °C; that for `Cn1cc(-c2cccc([N+](=O)[O-])c2)c(=O)c(-c2cccc(C(F)(F)F)c2)c1` was 209 to 211 °C.
To `O=c1[nH]c2ncc(-c3ccc(-c4ncc[nH]4)cc3)nc2n1CCC1CCOCC1` belongs 293 to 295 °C.
As to `Sc1nc2cnccc2[nH]1`, the melting point is over 320 °C.
The value for `CC(=O)N=NCc1ccc(OCCCCCOc2ccc(C(=O)N(c3ccccc3)C(C)C)c(Cl)c2)cc1` was 58 to 60 °C; that for `Cc1nn(C)c(C)c1C(=O)NC1CCCCC1` was 185 to 186 °C; that for `Clc1cc(-c2ccc3c(c2)CCO3)nc2ccccc12` was 130 to 132 °C.
To `N#Cc1[nH]n(-c2ccccc2)c(=O)c1N=Nc1cc(S(=O)(=O)Cl)ccc1Cl` belongs 115 to 120 °C.
To `CCOC(=O)c1cc(CCc2cc3c(s2)-n2c(C)nnc2CN=C3c2ccccc2Cl)ccc1CC(=O)Nc1cccc(/C=C/c2nc(C3CCC3)cs2)c1` belongs 118 to 120 °C.
As to `O=C1CC2CCSc3sc(CCO)cc3C2=NN1` (stereo not given), the melting point was in the range of 165 to 167 °C.
The value for `CCOC(=O)Nc1cc(COC(=O)Nc2ccc(N(CCCl)CCCl)cc2)cc(Nc2c3ccccc3nc3ccccc23)c1` was 178 to 182 °C.
To `Cc1noc(NS(=O)(=O)c2cc3ccccc3s2)c1C` belongs 157 to 160 °C; to `C#Cc1ccc(C(=O)Cl)cc1`, 32 to 34 °C; to `CCOC(=O)C1(c2ccccc2)CCN(C(C)=O)C(=O)C1` (stereo not given), 45 to 46 °C.
To `CCc1nc2c(N)nc3cccnc3c2n1CCCCCC(=O)N1CCOCC1` belongs 163 to 165 °C; to `O=c1n(CO)c2cccnc2n1-c1ccc2c(c1)OCO2`, 268 °C.
For `COc1ccc(C2CCCCC2=O)cc1` (stereo not given), the melting point was 90 °C.
The value for `O=C(Cc1ccc(O)c([N+](=O)[O-])c1)N[C@H]1C[C@H](C(=O)O)Nc2cc(Cl)cc(Cl)c21` (relative stereo) was 245 to 247 °C.
The value for `Cc1ccc([C@@H]2c3c(C)c(N4CCC(c5ccc(F)cc5)CC4)c(C)c(C)c3OC2(C)C)cc1` was 141 to 144 °C.
To `CCOC(=O)CCCCC(c1ccc(C)s1)N(O)C(N)=O` (stereo not given) belongs 106 to 107 °C.
